One assay addresses T1, cell-free Hb (Homo sapiens, UniProt P68871+P69905).
T1 construct: Hemoglobin was prepared from centrifuging human blood; from tissue; host or cells: human blood (red cells lysed, Hb purified on DEAE sephacel)
The experiment in a line: OEC study with normal cell-free Hb. It counts as biochemical. Conditions: cell-free Hb 12 mg/mL, 2 mM compound; for N (Hill coefficient) / P50: n = 1; for ΔP50: versus control P50 12.5. The protocol: (§1) Studies were performed on compounds TD-7, TD-7-1, TD-8, TD-8-1, TD-9 and TD-9-1 using 100 mM stock solution in DMSO and normal whole blood (AA). TD-7, TD-8 and TD-9 are compounds with a hydroxymethyl group on the pyridine ring, while TD-7-1, TD-8-1 and TD-9-1 are the respective nitrate ester derivatives. The whole blood samples had hematocrit values ranging from 29-36%, and cell-free purified Hb of 10-12 g/dL in the absence or presence of effectors solubilized in DMSO at 2 mM or in some cases with varying compound concentration. The blood samples were incubated in an IL 237 tonometer (Instrumentation Laboratories, Inc., Lexington, Mass.) for about 5-7 min at 37° C. against a gas mixture containing O2 concentrations of 0.804%, 2.935% and 5.528% and allowed to equilibrate at O2 tensions of 6, 20 and 40 mmHg. After equilibration, the sample was removed via syringe and aspirated into a ABL 700 series table top automated blood gas analyzer (Radiometer America, Inc., Westlake, Ohio) to determine total hemoglobin (tHb), hematocrit (Hct), pH, pCO2, partial pressure of oxygen (pO2), and the Hb oxygen saturation values (sO2). Similar procedures were followed for concentration and time dependence studies. The measured values of pO2 and sO2 at each oxygen saturation level were then subjected to a non-linear regression analysis using the program Scientist (Micromath, Salt Lake City, Utah) with the following equation: […]
Hemoglobin was prepared from centrifuging human blood at 2500 rpms for 20 min at 4° C. The supernatant solution, debris and plasma were discarded from the centrifuge bottles, leaving behind RBCs. The RBCs were washed thrice with an excess volume of 0.9% NaCl, and once with 1.0% NaCl, each time centrifuging and discarding the supernatant solution. The RBCs were pooled together into a chilled flask and hemolyzed to free Hb by adding 1-2 volume excess of 50 mM Tris buffer, pH 8.6 (containing EDTA). The mixture was allowed to stand in ice for 30 min with occasional stirring. The Hb solution was centrifuged at 10,000 rpm for 2 h at 4° C. The supernatant Hb solution was pooled into a chilled flask and NaCl (40-60 mg/mL Hb solution) was slowly added with stirring. Hemoglobin solution was centrifuged at 10,000 rpm for 2 h at 4° C. to remove any cell stroma remnants. The clear supernatant Hb solution was pooled into a chilled flask and the “syrupy” pellet was discarded. Hemoglobin solution was dialyzed against 50 mM Tris buffer, pH 8.6 (containing EDTA) at 4° C. to remove NaCl and/or other low molecular weight impurities. Strips of standard cellulose dialysis tubing that had been washed 3-4 times and boiled for 10 min in deionized water were used for dialysis. The dialyzed Hb was further purified by ion-exchange chromatography using DEAE sephacel to exclude 2,3-DPG. The resin was equilibrated with 50 mM Tris buffer, pH 8.6, and the Hb solution was run through the column with 50 mM Tris buffer, pH 8.6 (containing EDTA). The pooled fractions were concentrated with an Amicon stirred cell (Amicon, Model 402), to a final HbA concentration of about 80-120 mg/mL. Concentrated HbA was stored at −80° C.
As a result of the low left-shifting activities of TD-8 and TD-9, as well as the nitrate ester derivatives, we further evaluated the activity of the compounds TD-1, TD-7, TD-7-1, TD-8, and TD-9 using cell-free Hb (devoid of any proteins, enzymes, plasma and cell membranes) to determine whether plasma protein or RBC membrane could have any effect on compound biological activity. Previous studies have shown limited effect of plasma protein and RBC membrane on SHMF activity. The same tonometry procedure used on whole blood was used with the cell-free hemoglobin using 2 mM compound and 12 mg/mL of Hb.

The subject of another assay is SS cells. The experiment in a line: In vitro RBC anti-sickling (morphological) study with SS cells. It counts as cell-based, human. To be noted: SS cells, 1 h air then 4% O2, 37° C., 5 h; for inhibition at 500 µM / inhibition at 1000 µM / inhibition at 2000 µM / inhibition at 5000 µM: Homo sapiens, read-out: Inhibition of sickled cells; for inhibition at 1000 µM: 1.0 mM; for inhibition at 2000 µM: 2.0 mM; for inhibition at 5000 µM: 5.0 mM. The protocol: In vitro RBC morphological (anti-sickling) analysis was conducted at the Children's Hospital of Philadelphia (by Drs. Toshio Asakura and Osheiza Abdulmalik). The anti-sickling effects of 5HMF, TD-7 HCl, TD-7, TD-1, and TD-7-1 were studied by incubating suspensions of SS cells in the absence or presence of three different concentrations of the effectors in the presence of air for 1 h at 37° C. followed by incubation under 4% oxygen at 37° C. for 5 h. All samples were pre-incubated for 1 h with various compounds and then incubated under 4% O2 for 5 h. […] Table 5 represents the concentrations of the effectors along with the % inhibition of sickling cells. The hemolysates that had been prepared from SS cells after incubation with test compounds were also subjected to cation-exchange HPLC as previously reported (Abdulmalik et al., 2005).

The target of assay [1] is T2, Hb (Homo sapiens, UniProt P68871+P69905).
T2 construct: normal whole blood (AA); from tissue; host or cells: normal whole blood (AA), red blood cells
T2 sequence (P69905 2-142 limits assumed): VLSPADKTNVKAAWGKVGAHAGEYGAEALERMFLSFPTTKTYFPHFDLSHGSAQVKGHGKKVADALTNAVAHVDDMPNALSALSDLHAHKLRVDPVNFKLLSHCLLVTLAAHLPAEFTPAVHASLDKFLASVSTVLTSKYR
T2 sequence (P68871 2-147 limits assumed): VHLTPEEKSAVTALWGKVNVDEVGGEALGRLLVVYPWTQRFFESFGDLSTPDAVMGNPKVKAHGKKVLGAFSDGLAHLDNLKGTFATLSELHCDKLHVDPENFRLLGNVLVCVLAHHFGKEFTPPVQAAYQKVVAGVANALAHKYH
The assay is described as follows: Oxygen equilibrium curve (OEC) study with normal whole blood (AA). Format: cell-based. To be noted: for ΔP50: versus DMSO control. The protocol:
as §1
This equation was used to calculate P50 and Hill coefficient (N) values. Corresponding control experiments without the test compound (P50control) but containing DMSO were also performed.

Assay [2] concerns the target T2, Hb. The experiment in a line: Time-dependent OEC study with whole blood. Format: cell-based. To be noted: 0.5 mM; for P50: whole blood (Hct~34%); for N (Hill coefficient) / ΔP50: whole blood. The protocol: as §1
All samples were pre-incubated with whole blood (Hct˜34%) with the specified compounds 0.5 mM concentrations for the specified time. The control experiment without test compound (P50 (control)) contains the same concentration of DMSO used to solubilize the test solution (P50 (sample)).

[3] abbreviates: 2 mM compound, 1.5 h incubation.
Setting [4] is: 2 mM compound, 1.5 h incubation, 37° C.

Consider six compounds from patent US10858331B1, “Ester nitrates derivatives of aromatic aldehydes with multiple pharmalogic properties to treat sickle cell disease” (VIRGINIA COMMONWEALTH UNIVERSITY, priority 2013, dated 2020).

T1 sequence (P69905 2-142 limits assumed): as the sequence (P69905 2-142 limits assumed) above
T1 sequence (P68871 2-147 limits assumed): as the sequence (P68871 2-147 limits assumed) above

In the case of `O=Cc1ccc(CO)o1` [Compound 5HMF, 5-(hydroxymethyl) furfural, reference compound], the “N (Hill coefficient)” value on cell-free Hb is 2.0; on Hb [1] (setting [3]), 1.8 ± 0.1^c†; on Hb [2] (incubation 1 h), 2.2 ± 0.1; at Hb [2] (incubation 2 h), 2.2 ± 0.1; on Hb [2] (incubation 4 h), 2.1 ± 0.1; on Hb [2] (incubation 6 h), 2.1 ± 0.1. Moreover, the “N (Hill coefficient)” value at Hb [2] (incubation 10 h) amounted to 2.1 ± 0.1; on Hb [2] (incubation 12 h), 2.0 ± 0.1. The P50 at cell-free Hb was 8.3 mmHg; on Hb [1] (setting [4]), 20.2 ± 2.0^c† mmHg; at Hb [2] (incubation 1 h), 29.8 ± 0.2 mmHg; on Hb [2] (incubation 2 h), 29.2 ± 0.3 mmHg; at Hb [2] (incubation 4 h), 29.2 ± 0.1 mmHg; on Hb [2] (incubation 6 h) it was 30.0 ± 0.1 mmHg. In addition, the figures for the P50 on Hb [2] (incubation 10 h) and at Hb [2] (incubation 12 h) were 31.8 ± 0.1 mmHg and 32.8 ± 0.1 mmHg, respectively. Moreover, the ΔP50 was −4.2 mmHg at cell-free Hb; −11.1 mmHg at Hb [1] (setting [3]); −2.9 mmHg at Hb [2] (incubation 1 h); −3.8 mmHg at Hb [2] (incubation 2 h); −3.9 mmHg on Hb [2] (incubation 4 h); −4.2 mmHg at Hb [2] (incubation 6 h). In addition, the ΔP50 at Hb [2] (incubation 10 h) and on Hb [2] (incubation 12 h) was −3.3 mmHg each time. Moreover, the inhibition at 500 µM with SS cells (0.5 mM) came to 4%. Moreover, the inhibition at 1000 µM in the assay on SS cells amounted to 17%. In the assay with SS cells, the inhibition at 2000 µM was found to be 35%. Moreover, the inhibition at 5000 µM in the assay on SS cells turned out to be 75%.
Regarding `COc1ccc(OCc2cccnc2)c(C=O)c1` [INN-312, reference compound], the “Inhibition of sickled cells” value in the assay on SS cells (0.5 mM) was 15%.
As to `COc1ccc(OCc2cccc(CO)n2)c(C=O)c1` [TD-7, 2-((6-(Hydroxymethyl)pyridin-2-yl)methoxy)-5-methoxybenzaldehyde], the “N (Hill coefficient)” value at cell-free Hb is on record as 1.8; on Hb [1] (0.1 mM compound), 2.5^d*; at Hb [1] (0.5 mM compound), 2.1^d*; at Hb [1] (1 mM compound) it was 1.7^d*; at Hb [1] (setting [3]), 1.3 ± 0.3^c†; at Hb [2] (incubation 1 h) it was 2.2 ± 0.2. The “N (Hill coefficient)” value on Hb [2] (incubation 2 h) stood at 2.1 ± 0.1; on Hb [2] (incubation 4 h) it was 2.1 ± 0.1; at Hb [2] (incubation 6 h) it was 2.0 ± 0.2; at Hb [2] (incubation 10 h), 2.0 ± 0.1; on Hb [2] (incubation 12 h), 2.0 ± 0.2. The P50 on cell-free Hb is reported as 7.6 mmHg; on Hb [1] (0.1 mM compound), 30.1^d* mmHg; on Hb [1] (0.5 mM compound), 25.9^d* mmHg; at Hb [1] (1 mM compound) it was 23.2^d* mmHg; at Hb [1] (setting [4]) it was 14.3 ± 4.3^c† mmHg; at Hb [2] (incubation 1 h) it was 28.2 ± 0.9 mmHg. In addition, the P50 on Hb [2] (incubation 2 h) is 28.2 ± 0.8 mmHg; on Hb [2] (incubation 4 h), 28.8 ± 0.6 mmHg; on Hb [2] (incubation 6 h), 29.1 ± 0.6 mmHg; on Hb [2] (incubation 10 h) it was 30.6 ± 1.0 mmHg; at Hb [2] (incubation 12 h), 31.1 ± 0.7 mmHg. Further, the ΔP50 is −4.9 mmHg on cell-free Hb; −0.5 mmHg at Hb [1] (0.1 mM compound); −4.7 mmHg at Hb [1] (0.5 mM compound); −7.4 mmHg on Hb [1] (1 mM compound); −17.0 mmHg on Hb [1] (setting [3]); −4.5 mmHg on Hb [2] (incubation 1 h). Further, the ΔP50 on Hb [2] (incubation 2 h) is recorded as −4.8 mmHg; at Hb [2] (incubation 4 h), −4.3 mmHg; on Hb [2] (incubation 6 h), −5.1 mmHg; at Hb [2] (incubation 10 h), −4.5 mmHg; on Hb [2] (incubation 12 h) it was −5.0 mmHg. Further, in the assay with SS cells (0.5 mM), the inhibition at 500 µM worked out at 95%. The inhibition at 1000 µM with SS cells is 95%. The inhibition at 2000 µM in the assay with SS cells turned out to be 100%. Besides, the inhibition at 5000 µM with SS cells was 100%.
Regarding `COc1ccc(C=O)cc1OCc1cccc(CO)n1` [TD-8, 3-((6-(Hydroxymethyl)pyridine-2-yl)methoxy)-4-methoxybenzaldehyde], at cell-free Hb, the “N (Hill coefficient)” value was 1.9, the P50 is given as 7.6 mmHg and the ΔP50 is recorded as −4.9 mmHg. For the same compound, the inhibition at 500 µM in the assay with SS cells (0.5 mM) came out at 14%. Moreover, in the assay on SS cells, the inhibition at 1000 µM stood at 20% and the inhibition at 2000 µM is 38%. Besides, at Hb [1] (setting [3]), the “N (Hill coefficient)” value is recorded as 1.9 ± 0.1^c† and the ΔP50 is −5.4 mmHg. Moreover, the P50 on Hb [1] (setting [4]) is on record as 25.9 ± 2.5^c† mmHg.
As for `COc1ccc(C=O)c(OCc2cccc(CO)n2)c1` [TD-9, 2-((6-(Hydroxymethyl)pyridin-2-yl)methoxy)-4-methoxybenzaldehyde], at cell-free Hb, the “N (Hill coefficient)” value was 1.7, the P50 was determined as 6.8 mmHg and the ΔP50 was −5.7 mmHg. For the same compound, the inhibition at 500 µM in the assay on SS cells (0.5 mM) stood at 26%. Also, in the assay on SS cells, the inhibition at 1000 µM was determined as 35% and the inhibition at 2000 µM was 57%. Further, at Hb [1] (setting [3]), the “N (Hill coefficient)” value is recorded as 1.6 ± 0.3^c† and the ΔP50 is given as −10.2 mmHg. Also, the P50 at Hb [1] (setting [4]) is 21.1 ± 1.2^c† mmHg.
Consider `COc1cc(C=O)ccc1O` [vanillin, reference compound], for which the inhibition at 5000 µM in the assay on SS cells is 12%.

Usually inhibition stands for the percentage by which the read-out fell short of the control.
